The values that follow come from PubChem BioAssay AID1259407 (Chemical Carcinogenesis Research Information System (CCRIS), 2018).

The subject of the data set is CCRIS mutagenicity, Ames/micronucleus/aberration tests. Nature of the data set: CCRIS mutagenicity studies.
Where [1] appears, read: Test System: AMES SALMONELLA TYPHIMURIUM, Strain/Indicator: TA98, Metabolic Activation: NONE, Method: STANDARD PLATE.
Where [2] appears, read: Test System: AMES SALMONELLA TYPHIMURIUM, Strain/Indicator: TA100, Metabolic Activation: NONE, Method: STANDARD PLATE.
Where [3] appears, read: Test System: AMES SALMONELLA TYPHIMURIUM, Strain/Indicator: TA1535, Metabolic Activation: NONE, Method: STANDARD PLATE.
The mark [4] stands for this setting: Test System: E. COLI, Strain/Indicator: WP2 UVRA, Metabolic Activation: NONE, Method: STANDARD PLATE.
The mark [5] stands for this setting: Test System: E. COLI, Strain/Indicator: WP2 UVRA, Metabolic Activation: RAT, LIVER, S-9, Method: STANDARD PLATE.

Active and inactive are the calls of the source. No rule for the calls is given here.

Consider `O=c1cc(-c2ccc(O)cc2)oc2cc(O)c([C@@H]3O[C@H](CO)[C@@H](O)[C@H](O)[C@H]3O)c(O)c12`, for which the mutagenic call by setting is: (Test System: Ames Salmonella typhimurium, Strain/Indicator: TA98, Metabolic Activation: None, Method: Standard plate) “inactive; negative”; (Test System: Ames Salmonella typhimurium, Strain/Indicator: TA98, Metabolic Activation: Rat, Liver, S-9, Aroclor 1254, Method: Standard plate) “inactive; negative”.
For the compound `ONc1ccc(Cl)cc1`, the mutagenic call is “inactive; negative” under setting [1]; “inactive; negative” under setting [2]; “inactive; negative” under setting [3]; “inactive; negative” (Test System: E. COLI, Strain/Indicator: WP2 UVRA(P), Metabolic Activation: NONE, Method: STANDARD PLATE); “inactive; negative” (Test System: E. COLI, Strain/Indicator: WP2 UVRA, Metabolic Activation: NONE, Method: FLUCTUATION TEST); “inactive; negative” under setting [4].
For `CC(C)(N=NC(C)(C)C(=N)N)C(=N)N`, the mutagenic call is “active; positive” (Test System: AMES SALMONELLA TYPHIMURIUM, Strain/Indicator: TA98, Metabolic Activation: NONE, Method: PREINCUBATION); “active; positive” (Test System: AMES SALMONELLA TYPHIMURIUM, Strain/Indicator: TA98, Metabolic Activation: RAT, LIVER, S-9, PHENOBARBITAL AND 5,6-BENZOFLAVONE, Method: PREINCUBATION); “active; positive” (Test System: AMES SALMONELLA TYPHIMURIUM, Strain/Indicator: TA100, Metabolic Activation: NONE, Method: PREINCUBATION); “active; positive” (Test System: AMES SALMONELLA TYPHIMURIUM, Strain/Indicator: TA100, Metabolic Activation: RAT, LIVER, S-9, PHENOBARBITAL AND 5,6-BENZOFLAVONE, Method: PREINCUBATION).
As to `O=c1[nH]cc(N(CCCl)CCCl)c(=O)[nH]1`, the mutagenic call by setting is: under setting [3], “active; positive”; (Test System: E. COLI, Strain/Indicator: WP2 UVRA, Metabolic Activation: HAMSTER, LIVER, S-9, AROCLOR 1254, Method: STANDARD PLATE) “active; positive”; (Test System: E. COLI, Strain/Indicator: WP2 UVRA, Metabolic Activation: HAMSTER, LIVER, S-9, Method: STANDARD PLATE) “active; positive”; (Test System: E. COLI, Strain/Indicator: WP2 UVRA, Metabolic Activation: MOUSE, LIVER, S-9, Method: STANDARD PLATE) “active; positive”; under setting [4], “active; positive”; (Test System: E. COLI, Strain/Indicator: WP2 UVRA, Metabolic Activation: RAT, LIVER, S-9, AROCLOR 1254, Method: STANDARD PLATE) “active; positive”. In addition, the mutagenic call is, setting by setting: under setting [5], “active; positive”; (Test System: MOUSE LYMPHOMA, Strain/Indicator: L5178Y (TK+/TK-), Metabolic Activation: NONE, Method: SUSPENSION/PLATE) “active; positive”; (Test System: MOUSE LYMPHOMA, Strain/Indicator: L5178Y (TK+/TK-), Metabolic Activation: RAT, LIVER, S-9, AROCLOR 1254, Method: SUSPENSION/PLATE) “active; positive”.
`OC[C@H]1OC(O[C@H]2[C@H](O)[C@@H](O)C(O[C@H]3[C@H](O)[C@@H](O)[C@@H](O)O[C@@H]3CO)O[C@@H]2CO)[C@H](O)[C@@H](O)[C@@H]1O` (stereo partly drawn): the mutagenic call is “inactive; negative” under setting [1]; “inactive; negative” (Test System: AMES SALMONELLA TYPHIMURIUM, Strain/Indicator: TA98, Metabolic Activation: RAT, LIVER, S-9, Method: STANDARD PLATE); “inactive; negative” under setting [2]; “inactive; negative” (Test System: AMES SALMONELLA TYPHIMURIUM, Strain/Indicator: TA100, Metabolic Activation: RAT, LIVER, S-9, Method: STANDARD PLATE); “inactive; negative” under setting [3]; “inactive; negative” (Test System: AMES SALMONELLA TYPHIMURIUM, Strain/Indicator: TA1535, Metabolic Activation: RAT, LIVER, S-9, Method: STANDARD PLATE). For the same compound, the mutagenic call (Test System: AMES SALMONELLA TYPHIMURIUM, Strain/Indicator: TA1537, Metabolic Activation: NONE, Method: STANDARD PLATE) was “inactive; negative”; the mutagenic call (Test System: AMES SALMONELLA TYPHIMURIUM, Strain/Indicator: TA1537, Metabolic Activation: RAT, LIVER, S-9, Method: STANDARD PLATE) was “inactive; negative”; the mutagenic call under setting [4] is “inactive; negative”; the mutagenic call under setting [5] is “inactive; negative”.
Consider `CN1CCc2cc3c(c4c2[C@H]1Cc1ccccc1-4)OCO3`, for which the mutagenic call was “active; positive” (Test System: AMES SALMONELLA TYPHIMURIUM, Strain/Indicator: TA98, Metabolic Activation: RAT, LIVER, S-9, PHENOBARBITAL AND BETA-NAPHTHOFLAVONE, Method: PREINCUBATION) and “active; positive” (Test System: AMES SALMONELLA TYPHIMURIUM, Strain/Indicator: TA100, Metabolic Activation: RAT, LIVER, S-9, PHENOBARBITAL AND BETA-NAPHTHOFLAVONE, Method: PREINCUBATION).
